Assay results reported in BindingDB's records for doi:10.7270/Q2D50KC1 (The Scripps Research Institute Molecular Screening Center, 2007).

The compounds below were run against Sphingosine 1-phosphate receptor 3 (Homo sapiens, UniProt Q99500) (assay: S1P3 receptor NFAT-BLA reporter inhibition, dose response, counter-screen for 5HT1E antagonist project, CHO cells, Ga15, NFAT beta-lactamase, FRET (AID 776)).
Sequence of Sphingosine 1-phosphate receptor 3 (Q99500 whole entry): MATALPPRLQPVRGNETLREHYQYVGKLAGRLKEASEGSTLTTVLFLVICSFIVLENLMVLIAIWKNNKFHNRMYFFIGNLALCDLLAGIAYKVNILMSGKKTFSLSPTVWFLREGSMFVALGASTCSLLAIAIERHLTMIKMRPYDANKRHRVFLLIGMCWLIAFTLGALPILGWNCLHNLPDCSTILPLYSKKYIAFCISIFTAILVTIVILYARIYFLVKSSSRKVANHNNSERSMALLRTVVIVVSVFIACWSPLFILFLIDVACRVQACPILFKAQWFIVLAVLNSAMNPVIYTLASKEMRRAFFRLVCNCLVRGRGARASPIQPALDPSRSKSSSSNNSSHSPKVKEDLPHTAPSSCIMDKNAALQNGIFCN

SMILES	IC50 [µM]
CCN(CC)c1ccc2c(Cl)c(Br)c(=O)oc2c1	1.68
CCC(NC(=O)Nc1nnc(C(F)(F)F)s1)(C(F)(F)F)C(F)(F)F	> 12.4
CC(C)=CCC(C)(C)CNC(=O)NC1CCCCC1	> 50
O=C(Nc1ccc(-c2nc3ncccc3o2)cc1)c1ccc(Br)o1	> 50
O=S1(=O)C=C(Sc2nnc(-c3ccccc3)o2)c2ccccc21	2.33
CCCOCCOC(=O)c1[nH]c2c(c1C)C(=O)CC(c1cc(OC)ccc1OC)C2 (stereo not drawn)	> 39
OCC12C=CC(O1)c1c2c(O)n(-c2ccc(-c3ccccc3)cc2)c1O (stereo not drawn)	> 12.4
CCn1nc(-c2ccccc2)nc2c(=O)n(C)c(=O)nc1-2 [1-Ethyl-6-methyl-3-phenyl-1H-pyrimido[5,4-e][1,2,4]triazine-5,7-dione]	1.08
Cn1c(-c2c(N)n(C3CCCC3)c3nc4ccccc4nc23)nc2ccccc21 [1-cyclopentyl-3-(1-methyl-2-benzimidazolyl)-2-pyrrolo[3,2-b]quinoxalinamine]	2.04
CCn1nc(-c2cccs2)nc2c(=O)n(C)c(=O)nc1-2 [1-ethyl-6-methyl-3-thiophen-2-yl-pyrimido[5,4-e][1,2,4]triazine-5,7-dione]	0.815
COc1cc2c(cc1OC)-c1cc(N3CCCc4ccccc43)nc(=O)n1CC2 [2-(3,4-dihydro-2H-quinolin-1-yl)-9,10-dimethoxy-6,7-dihydropyrimido[6,1-a]isoquinolin-4-one]	> 17.7
COc1ccc(-n2nnnc2S(=O)(=O)CC(=O)N2CCCCC2)cc1 [2-[1-(4-methoxyphenyl)tetrazol-5-yl]sulfonyl-1-piperidin-1-ylethanone]	4.32
N#CCCS(=O)(=O)c1nnnn1-c1ccccc1 [3-(1-phenyltetrazol-5-yl)sulfonylpropanenitrile]	3.33
COc1ccc(-c2cc(C(F)(F)F)nc(S(C)(=O)=O)n2)cc1OC [4-(3,4-dimethoxyphenyl)-2-methylsulfonyl-6-(trifluoromethyl)pyrimidine]	5.18
COc1cccc(N2CCN(c3ncnc4c3[nH]c3ccccc34)CC2C)c1 (stereo not drawn) [4-[4-(3-methoxyphenyl)-3-methyl-1-piperazinyl]-5H-pyrimido[5,4-b]indole]	4.3
Cc1ccc(S(=O)(=O)Nc2cccc3ncccc23)s1 [5-methyl-N-quinolin-5-ylthiophene-2-sulfonamide]	> 39
CCOc1ccc(C2=Nn3c(nnc3-c3ccccc3OC)SC2)cc1 [6-(4-ethoxyphenyl)-3-(2-methoxyphenyl)-7H-[1,2,4]triazolo[3,4-b][1,3,4]thiadiazine]	> 12.4
Cc1ccc(-n2nc3c([n+]2[O-])CCc2c-3n[o+]n2[O-])cc1 [7-(4-methylphenyl)-3,6-dioxido-4,5-dihydrotriazolo[4,5-e][2,1,3]benzoxadiazole-3,6-diium]	5.78
COc1cccc(N2CCN(c3ncnc4c3[nH]c3ccc(F)cc34)CC2C)c1 (stereo not drawn) [8-fluoranyl-4-[4-(3-methoxyphenyl)-3-methyl-piperazin-1-yl]-5H-pyrimido[5,4-b]indole]	0.934
COc1ccccc1-c1nnc2n1N=C(c1ccc(O)c(O)c1)CS2 [(4E)-4-[3-(2-methoxyphenyl)-5H-[1,2,4]triazolo[3,4-b][1,3,4]thiadiazin-6-ylidene]-2-oxidanyl-cyclohexa-2,5-dien-1-one]	> 50
CC(=O)Nc1cc(OC(C)=O)c2nonc2c1OC(C)=O [Acetic acid 7-acetoxy-5-acetylamino-benzo[1,2,5]oxadiazol-4-yl ester]	1.82
COC(=O)Nc1nc2ccc(Sc3ccccc3)cc2[nH]1 [FENBENDAZOLE]	> 50

SMILES	IC50 [µM]
CCn1c(=O)c(C(=O)Nc2nc3ccccc3[nH]2)c(O)c2ccccc21 [MLS000027148]	> 12.4
CS(=O)(=O)c1nc(-c2ccccc2)cc(C(F)(F)F)n1 [MLS000044644]	3.51
CS(=O)(=O)c1nc(-c2cccs2)cc(C(F)(F)F)n1 [MLS000044645]	3.45
CS(=O)(=O)c1nc(-c2ccco2)cc(C(F)(F)F)n1 [MLS000044646]	4.88
N#C/C(=C/c1ccc(N2CCCCCC2)o1)c1ccc(F)cc1 [MLS000051438]	4.69
CCOc1cccc(-c2nnc3n2N=C(c2cc(OC)ccc2OC)CS3)c1 [MLS000081451]	> 17.7
COc1ccc(-n2c(O)cc(NCc3ccncc3)c2O)cc1 [MLS000099014]	> 50
CC(=O)Oc1ccc(-n2c(O)c3c(c2O)C2(C)C=CC3(C)O2)cc1 [MLS000107813]	7.56
O=C(Nc1ccc(N2CCOCC2)cc1)Nc1ccc2nc(-c3ccco3)c(-c3ccco3)nc2c1 [N-(2,3-di-2-furyl-6-quinoxalinyl)-N'-[4-(4-morpholinyl)phenyl]urea]	> 12.4
COc1cccc(N2CCN(c3ncnc4c3cnn4-c3ccc(C)cc3C)CC2)c1 [SMR000017007]	5.06
COCCOC(=O)c1[nH]c2c(c1C)C(=O)CC(c1ccccc1)C2 (stereo not drawn) [SMR000025505]	> 50
CCCc1nnc2n1N=C(c1ccc(OC)c(OC)c1)CS2 [SMR000057783]	> 50
CCCOc1ccc2nc(NC(=O)OC)[nH]c2c1 [SMR000058208]	> 50
Cc1ccc(N(CC2=NCCN2)c2cccc(O)c2)cc1 [SMR000059054]	> 50
Clc1ccc(-n2nnnc2Sc2ncnc3sccc23)cc1 [SMR000066808]	7.55
COc1cc(NS(=O)(=O)c2ccc(C)cc2)c2ncccc2c1 [SMR000071147]	> 39
CN(C)c1nc(OCCNC(=O)COc2ccc(Cl)cc2Cl)nc(N2CCCCC2)n1 [SMR000072558]	> 50
COc1cc2c(cc1OC)C1=C(C#N)CC=C(NS(=O)(=O)c3ccccc3)N1CC2 [SMR000092093]	> 50
COc1ccc(C2N(c3ccc(F)cc3)C(=O)C3CCCN32)cc1 (stereo not drawn) [SMR000094164]	> 50
CSc1ccccc1NC=C1C(=O)CC(C)(C)CC1=O [SMR000111352]	4.33
COC(=O)/C(=C1/Oc2cc(C)oc(=O)c2S1)C(F)(F)F [methyl (2E)-3,3,3-tris(fluoranyl)-2-(6-methyl-4-oxidanylidene-[1,3]oxathiolo[4,5-c]pyran-2-ylidene)propanoate]	1.42
